Measured values as given in patent publication US8241903B2, “Catecholamine receptor modulation” (Yeda Research and Development Co., Ltd., priority 2006, dated 2012).

Tested on: dopamine receptors 3 and 5 in CD34+/CD38-/low cells
Assay: In vitro 3-day incubation with GM-CSF, dopamine receptor staining
Format: cell-based, human
Details: 3-day incubation with GM-CSF 5 ng/ml; MPB, normal BM or cord blood cells
Experimental: (vi) Flow cytometry analysis. Phenotypes of human and murine cells were examined by immunostaining, followed by flow cytometry analysis on FACSCalibur (Becton Dickinson, San Jose, Calif.) with CellQuest software. Single cell suspension were prepared in PBS containing 0.01% sodium azide and 1% FCS. Human plasma and mouse IgG were used to block human and murine Fc-receptors. Isotype-matched control antibodies were used to exclude false positive cells. Staining was performed in 4° C. for 30 minutes. Engraftment of human cells was examined by staining with mouse anti-human CD45-Fitc, CD38-PE and CD34-APC (Becton Dickinson). Human leukocytes were gated according to their expression of the pan-leukocyte marker CD45, and amongst this population the percentage of CD34+/CD38−/low primitive cells was determined. In several experiments dopamine receptor expression on CD34+/CD38−/low was tested, cells were triple stained with mouse anti-human CD38-PE, CD34-APC and rabbit anti human dopamine receptor 3 or 5 (Calbiochem, Nottingham, UK) followed by secondary antibodies goat anti rabbit alexa 488 (Molecular Probes, Eugene, Oreg.). After staining, cells were washed in FACS buffer and analyzed by fluorescence-activated cell sorting (FACSCalibur and CellQuest software, Becton Dickinson). […]

GM-CSF: myeloid cytokine, granulocyte/macrophage-colony stimulating factor
levels of dopamine receptors 3 and 5 in CD34+/CD38-/low cells: up regulated
